Assay: xn = mol fraction of the nth substance listed
Conditions: 101 kPa, Liquid; for viscosity: Capillary tube (Ostwald / Ubbelohde) method; for mass density: Vibrating tube method

CNCCO [2-(methylamino)ethanol] + O
Conditions	mass density [kg/m3]	viscosity [mPa·s]
298.15 K, x1 = 0.0493	–	1.801
298.15 K, x1 = 0.0499	996.45	–
298.15 K, x1 = 0.0657	996.78	2.258
298.15 K, x1 = 0.1054	997.9	3.804
298.15 K, x1 = 0.1987	996.03	8.788
298.15 K, x1 = 0.2946	–	13.51
298.15 K, x1 = 0.301	988.25	–
298.15 K, x1 = 0.3834	980.24	–
298.15 K, x1 = 0.388	–	18.21
298.15 K, x1 = 0.5041	968.81	19.98
298.15 K, x1 = 0.6	960.3	19.11
298.15 K, x1 = 0.6974	953.64	–
298.15 K, x1 = 0.7003	–	17.02
298.15 K, x1 = 0.8009	946.63	–
298.15 K, x1 = 0.8019	–	14.38
298.15 K, x1 = 0.898	–	12.46
298.15 K, x1 = 0.9031	940.86	–
298.15 K, x1 = 1	936.18	10.51
303.15 K, x1 = 0.0493	–	1.556
303.15 K, x1 = 0.0499	994.49	–
303.15 K, x1 = 0.0657	994.58	1.927
303.15 K, x1 = 0.1054	995.16	3.169
303.15 K, x1 = 0.1987	992.48	6.987
303.15 K, x1 = 0.2946	–	10.53
303.15 K, x1 = 0.301	984.47	–
303.15 K, x1 = 0.3834	976.43	–
303.15 K, x1 = 0.388	–	14.11
303.15 K, x1 = 0.5041	965	15.44
303.15 K, x1 = 0.6	956.5	15.05
303.15 K, x1 = 0.6974	949.81	–
303.15 K, x1 = 0.7003	–	13.42
303.15 K, x1 = 0.8009	942.76	–
303.15 K, x1 = 0.8019	–	11.43
303.15 K, x1 = 0.898	–	10
303.15 K, x1 = 0.9031	936.96	–
303.15 K, x1 = 1	932.26	8.522
313.15 K, x1 = 0.0493	–	1.195
313.15 K, x1 = 0.0499	990.11	–
313.15 K, x1 = 0.0657	989.79	1.45
313.15 K, x1 = 0.1054	989.39	2.272
313.15 K, x1 = 0.1987	985.28	4.622
313.15 K, x1 = 0.2946	–	6.748
313.15 K, x1 = 0.301	976.815	–
313.15 K, x1 = 0.3834	968.73	–
313.15 K, x1 = 0.388	–	8.852
313.15 K, x1 = 0.5041	957.32	9.719
313.15 K, x1 = 0.6	948.83	9.424
313.15 K, x1 = 0.6974	942.12	–
313.15 K, x1 = 0.7003	–	8.652
313.15 K, x1 = 0.8009	935.01	–
313.15 K, x1 = 0.8019	–	7.547
313.15 K, x1 = 0.898	–	6.716
313.15 K, x1 = 0.9031	929.16	–
313.15 K, x1 = 1	924.42	5.833
323.15 K, x1 = 0.0493	–	0.9978
323.15 K, x1 = 0.0499	985.07	–
323.15 K, x1 = 0.0657	984.41	1.133
323.15 K, x1 = 0.1054	983.17	1.643
323.15 K, x1 = 0.1987	977.79	3.242
323.15 K, x1 = 0.2946	–	4.581
323.15 K, x1 = 0.301	968.97	–
323.15 K, x1 = 0.3834	960.83	–
323.15 K, x1 = 0.388	–	5.886
323.15 K, x1 = 0.5041	949.46	6.458
323.15 K, x1 = 0.6	940.99	6.319
323.15 K, x1 = 0.6974	934.27	–
323.15 K, x1 = 0.7003	–	5.881
323.15 K, x1 = 0.8009	927.12	–
323.15 K, x1 = 0.8019	–	5.229
323.15 K, x1 = 0.898	–	4.725
323.15 K, x1 = 0.9031	921.24	–
323.15 K, x1 = 1	916.48	4.177
333.15 K, x1 = 0.0493	–	0.817
333.15 K, x1 = 0.0499	979.47	–
333.15 K, x1 = 0.0657	978.52	0.9621
333.15 K, x1 = 0.1054	976.55	–
333.15 K, x1 = 0.1987	970.11	2.379
333.15 K, x1 = 0.2946	–	3.261
333.15 K, x1 = 0.301	960.9	–
333.15 K, x1 = 0.3834	952.72	–
333.15 K, x1 = 0.388	–	4.107
333.15 K, x1 = 0.5041	941.41	4.499
333.15 K, x1 = 0.6	932.98	4.429
333.15 K, x1 = 0.6974	926.28	–
333.15 K, x1 = 0.7003	–	4.177
333.15 K, x1 = 0.8009	919.16	–
333.15 K, x1 = 0.8019	–	3.78
333.15 K, x1 = 0.898	–	3.463
333.15 K, x1 = 0.9031	913.22	–
333.15 K, x1 = 1	908.46	3.108
343.15 K, x1 = 0.0493	–	0.6997
343.15 K, x1 = 0.0499	973.37	–
343.15 K, x1 = 0.0657	972.17	0.7903
343.15 K, x1 = 0.1054	969.57	1.023
343.15 K, x1 = 0.1987	962.17	1.747
343.15 K, x1 = 0.2946	–	2.416
343.15 K, x1 = 0.301	952.65	–
343.15 K, x1 = 0.3834	944.43	–
343.15 K, x1 = 0.388	–	2.986
343.15 K, x1 = 0.5041	933.17	3.255
343.15 K, x1 = 0.6	924.8	3.227
343.15 K, x1 = 0.6974	918.16	–
343.15 K, x1 = 0.7003	–	3.075
343.15 K, x1 = 0.8009	911	–
343.15 K, x1 = 0.8019	–	2.827
343.15 K, x1 = 0.898	–	2.618
343.15 K, x1 = 0.9031	905.06	–
343.15 K, x1 = 1	900.3	2.385

From the NIST ThermoML archive (doi:10.1021/je060457+)
